Earlier results in patent US20120064155A1, “ORAL PHARMACEUTICAL COMPOSITION FOR USE IN RESPIRATORY DISEASES” (LABORATORIOS SENOSIAIN S.A. DE C.V., priority 2009, published 2012).
≈ marks a conversion by molar mass, not a printed value.

Experiments:
[1] = after oral administration; approximately

water solubility [mg/mL]	bound to plasma proteins (plasma proteins) [%]	SMILES	start of antihistamine effect [1] [min]
100 (≈ 598 mM)	95	CNC[C@H](O)c1cccc(O)c1 [Phenylephrine]	–
–	–	CCOC(=O)N1CCC(=C2c3ccc(Cl)cc3CCc3cccnc32)CC1 [Loratadine]	≤ 30
